Results from publication PMC11124870, “Effect of Antioxidants in Medicinal Products on Intestinal Drug Transporters” (Pharmaceutics, 2024).

Test system: not given
Assay: not given
Settings: Table S1; source not stated; cited from earlier work

Compound	LogP
O=C(O)c1ccc(O)c(O)c1 [3,4-dihydroxybenzoid acid, 3,4-dihydroxybenzoic acid]	0.86
O=C1O[C@H]([C@@H](O)CO)C(O)=C1O [Ascorbic acid]	-1.85
NCCC(=O)N[C@@H](Cc1cnc[nH]1)C(=O)O [Carnosine]	-4
COC1=C(OC)C(=O)C(C/C=C(\C)CC/C=C(\C)CC/C=C(\C)CC/C=C(\C)CC/C=C(\C)CC/C=C(\C)CC/C=C(\C)CC/C=C(\C)CC/C=C(\C)CCC=C(C)C)=C(C)C1=O [Co-enzyme Q-10]	10
C[N+](C)(C)[C@@H](Cc1c[nH]c(=S)[nH]1)C(=O)[O-] [Ergothioneine]	0.3
O=C1O[C@H]([C@H](O)CO)C(O)=C1O [Erythorbic acid]	-1.88
N[C@@H](Cc1c[nH]cn1)C(=O)O [Histidine]	-3.32
NCCCC[C@H](N)C(=O)O [Lysine]	-3.05
CSCC[C@H](N)C(=O)O [Methionine]	-1.87
Oc1ccc2c(c1)OCO2 [Sesamol]	1.57
O=S([O-])O.[Na+] [Sodium bisulfite]	-1.2
O=S(O)S(=O)(=O)O [Sodium metabisulfite]	-3.7
O=S([O-])[O-].[Na+].[Na+] [Sodium sulfite]	-4
O.O.O.O.O.O=S([O-])([O-])=S.[Na+].[Na+] [Sodium thiosulfate, pentahydrate]	0.048
O=C(O)C(O)C(O)C(=O)O (stereo not shown) [Tartaric acid]	-0.76

Molecular target: T1, OATP2B1 (Homo sapiens, UniProt O94956)
T1 sequence (O94956 1-709): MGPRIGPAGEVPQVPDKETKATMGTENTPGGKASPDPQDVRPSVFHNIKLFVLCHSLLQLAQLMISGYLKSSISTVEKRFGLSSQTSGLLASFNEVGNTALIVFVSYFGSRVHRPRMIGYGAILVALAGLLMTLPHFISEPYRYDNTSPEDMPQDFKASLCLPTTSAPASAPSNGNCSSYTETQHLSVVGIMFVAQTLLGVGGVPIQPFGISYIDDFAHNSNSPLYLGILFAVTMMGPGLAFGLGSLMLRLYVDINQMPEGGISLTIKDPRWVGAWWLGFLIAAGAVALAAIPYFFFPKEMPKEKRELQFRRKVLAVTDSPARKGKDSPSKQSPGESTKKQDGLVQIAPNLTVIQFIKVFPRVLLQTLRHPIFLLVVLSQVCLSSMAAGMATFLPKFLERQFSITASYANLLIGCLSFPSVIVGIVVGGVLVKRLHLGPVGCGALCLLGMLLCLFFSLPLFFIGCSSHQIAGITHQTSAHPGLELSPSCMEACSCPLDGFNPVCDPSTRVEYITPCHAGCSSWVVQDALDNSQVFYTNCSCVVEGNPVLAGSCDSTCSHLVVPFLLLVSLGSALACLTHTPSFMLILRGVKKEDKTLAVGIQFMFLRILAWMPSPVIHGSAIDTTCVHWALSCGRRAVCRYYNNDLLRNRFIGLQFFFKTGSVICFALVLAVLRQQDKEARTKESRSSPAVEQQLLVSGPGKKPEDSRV
Assay: Uptake transporter assay, 3H-estrone sulfate uptake in HEK-293-OATP2B1 cells
Settings: not given

Compound	% Uptake of 3H-ES OATP2B1
O=C(O)C(O)C(O)C(=O)O (stereo not shown) [Tartaric acid]	101.1 ± 5.8%

Same assay, conditions: antioxidant 200 µM; uptake with DMSO set as 100%; mean ± SD, three replicates; HEK-293-OATP2B1 cells

Compound	% Uptake of 3H-ES OATP2B1
O=C(O)c1ccc(O)c(O)c1 [3,4-dihydroxybenzoid acid, 3,4-dihydroxybenzoic acid]	85.4 ± 4.4%
NCCC(=O)N[C@@H](Cc1cnc[nH]1)C(=O)O [Carnosine]	119.3 ± 27.6%
COC1=C(OC)C(=O)C(C/C=C(\C)CC/C=C(\C)CC/C=C(\C)CC/C=C(\C)CC/C=C(\C)CC/C=C(\C)CC/C=C(\C)CC/C=C(\C)CC/C=C(\C)CCC=C(C)C)=C(C)C1=O [Co-enzyme Q-10]	116.1 ± 16.0%
C[N+](C)(C)[C@@H](Cc1c[nH]c(=S)[nH]1)C(=O)[O-] [Ergothioneine]	118.2 ± 30.6%
N[C@@H](Cc1c[nH]cn1)C(=O)O [Histidine]	108.9 ± 4.0%
NCCCC[C@H](N)C(=O)O [Lysine]	120.3 ± 21.4%
CSCC[C@H](N)C(=O)O [Methionine]	113.2 ± 15.2%
Oc1ccc2c(c1)OCO2 [Sesamol]	103.1 ± 7.2%
O=S([O-])O.[Na+] [Sodium bisulfite]	90.1 ± 24.5%
O=S(O)S(=O)(=O)O [Sodium metabisulfite]	118.9 ± 31.7%
O=S([O-])[O-].[Na+].[Na+] [Sodium sulfite]	92.9 ± 4.5%
O.O.O.O.O.O=S([O-])([O-])=S.[Na+].[Na+] [Sodium thiosulfate, pentahydrate]	104.4 ± 2.4%

Molecular target: T2, P-gp (Homo sapiens, UniProt P08183)
T2 construct: purchased ThermoFisher Scientific GM0015; host or cells: Sf9 membrane vesicles
Assay: Vesicular transport assay, 3H-NMQ uptake in P-gp membrane vesicles
Assay type: biochemical
Settings: antioxidant 200 µM; uptake with DMSO set as 100%; mean ± SD, three replicates; membrane vesicles
Protocol: (§1) The vesicular transport assay was performed using Spodoptera frugiperda 9 (Sf9) membrane vesicles overexpressing human P-gp or BCRP, as reported previously with minor modifications. In brief, Isoplate 96-well flat-bottom white plates were preincubated with HBSS containing 0.5 mg/mL BSA on an orbital shaker in a 37 °C incubator at 90 rpm for 60 min followed by washing with HBSS. The assay mixture (75 µL/well) contained a probe substrate and either vehicle control, a known inhibitor of P-gp or BCRP, or an antioxidant, in vesicle uptake buffer (50 mM MOPS-Tris, pH 7.0 + 70 mM KCl + 7.5 mM MgCl2) prewarmed to 37 °C. After addition of the assay mixture, 5 μL/well (5 μg/μL stock concentration of the vesicles) of vesicles overexpressing human P-gp or BCRP was added. Uptake assays were initiated by adding 20 μL of either 25 mM adenosine triphosphate (ATP) or 25 mM adenosine monophosphate (AMP) to a final concentration of 5 mM. Plates were incubated at 37 °C for 20 min with orbital shaking (90 rpm). After 20 min, the uptake was quenched by adding 150 μL of ice-cold wash buffer (40 mM MOPS-Tris, pH 7.0 + 70 mM KCl) to each well, and the mixture was transferred to a 96-well filtration plate. Vacuum was applied, and the vesicles were washed three times with wash buffer. Vesicles were then lysed with 100 µL of MicroScint-20.

T2 sequence (P08183 whole entry): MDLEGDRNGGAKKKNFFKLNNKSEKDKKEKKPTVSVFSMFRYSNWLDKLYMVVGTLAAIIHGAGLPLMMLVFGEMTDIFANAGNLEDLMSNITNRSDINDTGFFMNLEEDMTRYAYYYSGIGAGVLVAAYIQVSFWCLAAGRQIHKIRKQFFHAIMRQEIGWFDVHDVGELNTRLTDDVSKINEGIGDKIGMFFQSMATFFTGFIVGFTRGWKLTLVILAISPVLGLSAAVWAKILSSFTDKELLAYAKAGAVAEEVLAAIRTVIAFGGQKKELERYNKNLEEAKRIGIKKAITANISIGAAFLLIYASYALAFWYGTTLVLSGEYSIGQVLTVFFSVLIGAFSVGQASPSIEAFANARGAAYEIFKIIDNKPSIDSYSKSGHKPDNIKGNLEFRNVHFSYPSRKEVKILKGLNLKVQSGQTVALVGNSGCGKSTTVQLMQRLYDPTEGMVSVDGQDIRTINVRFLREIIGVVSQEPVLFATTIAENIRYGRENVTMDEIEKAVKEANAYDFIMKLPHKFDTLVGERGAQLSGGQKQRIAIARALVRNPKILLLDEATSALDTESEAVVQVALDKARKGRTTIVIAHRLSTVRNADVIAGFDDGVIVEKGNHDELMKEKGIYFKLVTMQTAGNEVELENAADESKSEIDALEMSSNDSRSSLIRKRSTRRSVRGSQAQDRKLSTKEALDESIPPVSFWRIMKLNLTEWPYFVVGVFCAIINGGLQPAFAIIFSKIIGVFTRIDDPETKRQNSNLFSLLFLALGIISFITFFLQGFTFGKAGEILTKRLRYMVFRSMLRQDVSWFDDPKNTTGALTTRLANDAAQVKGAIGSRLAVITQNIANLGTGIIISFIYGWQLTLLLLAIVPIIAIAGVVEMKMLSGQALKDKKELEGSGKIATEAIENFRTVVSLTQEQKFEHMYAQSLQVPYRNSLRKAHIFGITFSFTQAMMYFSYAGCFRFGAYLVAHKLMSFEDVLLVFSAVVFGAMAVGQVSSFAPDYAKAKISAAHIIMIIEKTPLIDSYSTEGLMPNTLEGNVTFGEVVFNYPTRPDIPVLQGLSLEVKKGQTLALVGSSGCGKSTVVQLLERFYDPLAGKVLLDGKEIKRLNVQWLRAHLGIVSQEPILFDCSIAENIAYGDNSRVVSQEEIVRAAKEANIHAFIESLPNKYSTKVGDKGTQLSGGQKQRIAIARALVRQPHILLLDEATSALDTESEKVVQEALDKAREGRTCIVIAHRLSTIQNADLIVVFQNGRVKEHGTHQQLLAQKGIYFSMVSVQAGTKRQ

Compound	% Uptake of 3H-NMQ P-gp
O=C(O)c1ccc(O)c(O)c1 [3,4-dihydroxybenzoid acid, 3,4-dihydroxybenzoic acid]	118.9 ± 20%
O=C1O[C@H]([C@@H](O)CO)C(O)=C1O [Ascorbic acid]	113.6 ± 43.3%
NCCC(=O)N[C@@H](Cc1cnc[nH]1)C(=O)O [Carnosine]	82.6 ± 44%
COC1=C(OC)C(=O)C(C/C=C(\C)CC/C=C(\C)CC/C=C(\C)CC/C=C(\C)CC/C=C(\C)CC/C=C(\C)CC/C=C(\C)CC/C=C(\C)CC/C=C(\C)CCC=C(C)C)=C(C)C1=O [Co-enzyme Q-10]	90.3 ± 16.3%
C[N+](C)(C)[C@@H](Cc1c[nH]c(=S)[nH]1)C(=O)[O-] [Ergothioneine]	58.2 ± 23.6%
O=C1O[C@H]([C@H](O)CO)C(O)=C1O [Erythorbic acid]	81.8 ± 31.4%
N[C@@H](Cc1c[nH]cn1)C(=O)O [Histidine]	87.6 ± 10.6%
NCCCC[C@H](N)C(=O)O [Lysine]	32.5 ± 44.3%
CSCC[C@H](N)C(=O)O [Methionine]	86.7 ± 24.5%
Oc1ccc2c(c1)OCO2 [Sesamol]	121.3 ± 35.1%
O=S([O-])O.[Na+] [Sodium bisulfite]	96.1 ± 30.4%
O=S(O)S(=O)(=O)O [Sodium metabisulfite]	78.8 ± 17.5%
O=S([O-])[O-].[Na+].[Na+] [Sodium sulfite]	77.7 ± 33.7%
O.O.O.O.O.O=S([O-])([O-])=S.[Na+].[Na+] [Sodium thiosulfate, pentahydrate]	77.4 ± 20%

Same assay, conditions: human, Sf9 membrane vesicles overexpressing human P-gp, pH 7, probe 3H-NMQ; 200 µM; 3H-NMQ

Compound	inhibition at 20 min, 200 µM
NCCCC[C@H](N)C(=O)O [Lysine]	≥ 50%

Molecular target: T3, BCRP (Homo sapiens, UniProt Q9UNQ0)
T3 sequence (Q9UNQ0 1-655): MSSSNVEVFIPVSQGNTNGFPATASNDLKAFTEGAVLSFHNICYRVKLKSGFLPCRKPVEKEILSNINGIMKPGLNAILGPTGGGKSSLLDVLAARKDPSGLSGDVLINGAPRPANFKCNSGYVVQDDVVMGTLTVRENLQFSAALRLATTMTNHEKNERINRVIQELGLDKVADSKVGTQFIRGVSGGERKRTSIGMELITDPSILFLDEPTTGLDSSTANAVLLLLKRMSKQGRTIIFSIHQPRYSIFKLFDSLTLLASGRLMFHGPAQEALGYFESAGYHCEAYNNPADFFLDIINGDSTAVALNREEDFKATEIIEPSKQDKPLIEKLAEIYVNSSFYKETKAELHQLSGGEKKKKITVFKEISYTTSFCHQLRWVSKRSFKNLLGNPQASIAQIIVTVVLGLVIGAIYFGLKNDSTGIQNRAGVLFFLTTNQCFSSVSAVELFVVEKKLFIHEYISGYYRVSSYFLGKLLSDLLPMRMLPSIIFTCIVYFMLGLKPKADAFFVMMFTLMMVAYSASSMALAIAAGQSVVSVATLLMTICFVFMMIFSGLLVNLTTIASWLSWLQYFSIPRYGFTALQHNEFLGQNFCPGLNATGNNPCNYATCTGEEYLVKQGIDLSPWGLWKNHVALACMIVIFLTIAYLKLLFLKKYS
Assay: Vesicular transport assay, 3H-CCK8 uptake in BCRP membrane vesicles
Assay type: biochemical
Design: purchased ThermoFisher Scientific GM0008; host or cells: Sf9 membrane vesicles
Settings: antioxidant 200 µM; uptake with DMSO set as 100%; mean ± SD, three replicates; membrane vesicles
Protocol: as §1

Compound	% Uptake of 3H-CCK8 BCRP
O=C(O)c1ccc(O)c(O)c1 [3,4-dihydroxybenzoid acid, 3,4-dihydroxybenzoic acid]	78.5 ± 6.9%
O=C1O[C@H]([C@@H](O)CO)C(O)=C1O [Ascorbic acid]	92.7 ± 5.9%
NCCC(=O)N[C@@H](Cc1cnc[nH]1)C(=O)O [Carnosine]	99.7 ± 11.6%
COC1=C(OC)C(=O)C(C/C=C(\C)CC/C=C(\C)CC/C=C(\C)CC/C=C(\C)CC/C=C(\C)CC/C=C(\C)CC/C=C(\C)CC/C=C(\C)CC/C=C(\C)CCC=C(C)C)=C(C)C1=O [Co-enzyme Q-10]	82.7 ± 16.2%
C[N+](C)(C)[C@@H](Cc1c[nH]c(=S)[nH]1)C(=O)[O-] [Ergothioneine]	112.5 ± 11.2%
O=C1O[C@H]([C@H](O)CO)C(O)=C1O [Erythorbic acid]	88.2 ± 7.5%
N[C@@H](Cc1c[nH]cn1)C(=O)O [Histidine]	92.4 ± 1.6%
NCCCC[C@H](N)C(=O)O [Lysine]	109.0 ± 20.8%
CSCC[C@H](N)C(=O)O [Methionine]	94.8 ± 9.4%
Oc1ccc2c(c1)OCO2 [Sesamol]	90.3 ± 3.7%
O=S([O-])O.[Na+] [Sodium bisulfite]	110.4 ± 9.3%
O=S(O)S(=O)(=O)O [Sodium metabisulfite]	94.5 ± 8.2%
O=S([O-])[O-].[Na+].[Na+] [Sodium sulfite]	99.7 ± 5.5%
O.O.O.O.O.O=S([O-])([O-])=S.[Na+].[Na+] [Sodium thiosulfate, pentahydrate]	114.2 ± 22.8%

Test system: OATP2B1, P-gp, and BCRP
Assay: not given
Settings: cited from earlier work

Compound	Inhibition of intestinal transporters, previous assessment
O.O.O.O.O.O=S([O-])([O-])=S.[Na+].[Na+] [Sodium thiosulfate, pentahydrate]	found not to inhibit these transporters
